Reference: paper PMC4893628, “Chalcone-based Selective Inhibitors of a C4 Plant Key Enzyme as Novel Potential Herbicides” (Scientific Reports, 2016)
Where two headings read alike, the source gives them in different places.

Tests used:
[1] = test system: Amaranthus retroflexus; test: In planta growth experiment, A. retroflexus; assay type: in vivo; settings: shoots sprayed, 3 mM
Text: Seeds of Amaranthus retroflexus L. (Herbiseed, Twyford, UK) and Brassica napus L. cv. Mozart (Norddeutsche Pflanzenzucht Hans-Georg Lembke KG, Holtsee, Germany) were sown in vermiculite for germination. When cotyledons were fully expanded, seedlings were transplanted into plastic pots with a volume of 0.230 L filled with a substrate containing 50% bottom ash (0–4 mm), 30% peat and 20% pumice gravel (0–4 mm). Plants were watered every other day with 0.03% Hakaphos® Grün solution (Compo Expert GmbH, Münster, Germany) by sub-irrigation. Plants were grown in a climate chamber at 22 °C/20 °C day/night temperature and a day/night length of 16 h/8 h. Relative humidity was adjusted to 70% and light intensity was 320 μmol m^−2 s^−1 PAR (Photosynthetically Active Radiation) at plant level.
When seedlings reached the two-leaf growth stage, plant shoots were sprayed from the top with treatment solutions using spray bottles with a spraying angle of 35° (10 ml, neoLab Migge Laborbedarf-Vertriebs GmbH, Heidelberg, Germany). Treatment solutions were applied from a height of 8.5 cm above the pots. Each pot was sprayed once with a solution volume of 0.135 ml. Treatment solutions contained 2.4% (v/v) DMSO (dimethylsulfoxide, Duchefa Biochemie, Haarlem, the Netherlands), 0.1% (v/v) Tween® and the respective compound at a concentration of 3 mM. The control treatment contained 2.4% (v/v) DMSO, and 0.1% (v/v) Tween20. Further details are given in the Supplementary Information. […]
Experimental design and assessments of in planta experiments
We tested eleven compounds in a first experiment. In a follow-up experiment we tested selected […]
chalcone. Each treatment was repeated 12 times, except for oilseed rape in the second experiment (n=10). Pots were arranged in the growth chamber according to a fully randomized design. Initial growth of the second leaf of A. retroflexus plants was monitored by aquiring images of each plant from above from day zero to day two after treatment. Images were taken […]
from a fixed distance at 90° view angle using the camera Canon EOS 70D equipped with a Canon EF 14 mm/2.8 L II USM lens. Leaf area of single leaves was measured using the ImageJ software31, by drawing the leaf contours using a drawing tablet (Cintiq 22HD, Wacom Europe GmbH, Krefeld, Germany). Conversion of pixel to cm was achieved by using a target of known size inside the image. Six days after the treatment, half of the plants were harvested. Leaf area was assessed using a leaf area meter (LI3100C Area Meter, LI-Cor, Lincoln, Nebraska, USA) and samples were oven-dried at 65°C for seven days to obtain dry weight . Thirteen days after the treatment, this procedure was repeated with the second half of plants.
Chlorophyll fluorescence measurements […]
6 mm leaf discs were cut out of the second leaf and immediately placed into 96-well-plates filled with 300 µL 0.125 % Hoagland’s solution with 1 mM MES-KOH (MES-monohydrate, Merck, Darmstadt, Germany) buffered to a pH of 6.5. The treatment solution contained 1.6 % (v/v) DMSO, 0.1 % (v/v) Tween® 20 and 2',3',4',3,4-Pentahydroxychalcone at a concentration of 2 mM. The control treatment contained 1.6 % (v/v) DMSO, 0.1 % (v/v) Tween® 20. Each leaf disc was treated with 1.5 µL solution placed on top of the leaf discs. Plates were sealed with Parafilm and placed into a climate cabinet with 12h/12h day/night-length and a temperature of 22°C at a light intensity of 130 µmol m-2 s-1. 96 hours after treatment, chlorophyll fluorescence measurements were performed on leaf discs using an Imaging PAM M-Series fluorescence camera (Heinz Walz GmbH, Effeltrich, Germany). Leaf discs were dark adapted for 30 minutes, minimum and maximum chlorophyll fluorescence were obtained and leaf discs were illuminated for 30 minutes

[2] = test system: Escherichia coli K-12 MG1655; test: Bacterial growth in microscale cultivation, E. coli; assay type: cell-based; settings: relative to control; for activity at 4 µM / activity at 40 µM / activity at 400 µM / activity at 0.4 µM: Escherichia coli
Method: (§1) The following bacteria were cultivated in the presence of trans-chalcone derived inhibitors: Corynebacterium glutamicum ATCC13032[43], Escherichia coli K-12 MG1655[44], Pseudomonas putida KT2440[45], and Bacillus subtilis 168[46]. The growth of these bacteria was monitored in flower-well plates shaken at 1200 rpm as backscatter at 620 nm (gain 20) using a BioLector® microscale cultivation system (m2p labs, Baesweiler, Germany). For further experimental details please refer to the Supplementary Information.
(§2) medium or the appropriate minimal medium and shaken at 140 rpm overnight. For inoculation of
(§3) the main culture, cells equivalent to an optical density at 600 nm of 0.5 (C. glutamicum, E. coli,
(§4) and P. putida) or 0.25 (B. subtilis) in 800 µL medium were washed and resuspended in fresh
(§5) media. Inhibitor substances were dissolved in DMSO and added to the media to a final
(§6) Since the least polar trans-chalcone and 2’-hydroxychalcone precipitated in the growth media at
(§7) the highest concentrations, the maximal concentration of these compounds was reduced to 400
(§8) µM and 100 µM, respectively. The final backscatter at 620 nm, the growth rate (h-1), and the
(§9) duration of the lag phase of all cultures were determined in a BioLector microscale cultivation
(§10) system in comparison to negative controls supplemented with the solvent DMSO. A longer lag

[3] = test system: Bacillus subtilis 168; test: Bacterial growth in microscale cultivation, B. subtilis; assay type: cell-based; settings: for activity at 4 µM / activity at 40 µM / activity at 400 µM / Lag Phase / activity at 0.4 µM: relative to control; for Influence on bacterial growth: highest concentration tested (10× IC50) if not stated otherwise
Method: as §1, §2, §3, §4, §5, §6, §7, §8, §9, §10

[4] = MG1655, complex medium, 4 µM, read-out: Final Backscatter
[5] = MG1655, complex medium, 4 µM, read-out: Growth rate
[6] = MG1655, complex medium, 40 µM, read-out: Final Backscatter
[7] = MG1655, complex medium, 40 µM, read-out: Growth rate
[8] = MG1655, complex medium, 400 µM, read-out: Final Backscatter
[9] = MG1655, complex medium, 400 µM, read-out: Growth rate
[10] = MG1655, minimal medium, 4 µM, read-out: Final Backscatter
[11] = MG1655, minimal medium, 4 µM, read-out: Growth rate
[12] = MG1655, minimal medium, 40 µM, read-out: Final Backscatter
[13] = MG1655, minimal medium, 40 µM, read-out: Growth rate
[14] = MG1655, minimal medium, 400 µM, read-out: Final Backscatter
[15] = MG1655, minimal medium, 400 µM, read-out: Growth rate
[16] = Bacillus subtilis, 168, complex medium, 4 µM, read-out: Final Backscatter
[17] = Bacillus subtilis, 168, complex medium, 4 µM, read-out: Growth rate
[18] = Bacillus subtilis, 168, complex medium, 40 µM, read-out: Final Backscatter
[19] = Bacillus subtilis, 168, complex medium, 40 µM, read-out: Growth rate
[20] = Bacillus subtilis, 168, complex medium, 400 µM, read-out: Final Backscatter
[21] = Bacillus subtilis, 168, complex medium, 400 µM, read-out: Growth rate
[22] = Bacillus subtilis, 168, minimal medium, 4 µM, read-out: Final Backscatter
[23] = Bacillus subtilis, 168, minimal medium, 4 µM, read-out: Growth rate
[24] = Bacillus subtilis, 168, minimal medium, 40 µM, read-out: Final Backscatter
[25] = Bacillus subtilis, 168, minimal medium, 40 µM, read-out: Growth rate
[26] = Bacillus subtilis, 168, minimal medium, 400 µM, read-out: Final Backscatter
[27] = Bacillus subtilis, 168, minimal medium, 400 µM, read-out: Growth rate

SMILES	Influence on plants [1]	activity at 4 µM [2, 4]	activity at 4 µM [2, 5]	activity at 40 µM [2, 6]	activity at 40 µM [2, 7]	activity at 4 µM [2, 10]	activity at 4 µM [2, 11]	activity at 40 µM [2, 12]	activity at 40 µM [2, 13]	Lag Phase ([2]; complex medium, 4 µM)	Lag Phase ([2]; complex medium, 40 µM)	Lag Phase ([2]; minimal medium, 4 µM)	Lag Phase ([2]; minimal medium, 40 µM)	activity at 4 µM [3, 16]	activity at 4 µM [3, 17]	activity at 40 µM [3, 18]	activity at 40 µM [3, 19]	activity at 4 µM [3, 22]	activity at 4 µM [3, 23]	activity at 40 µM [3, 24]	further results
O=C(/C=C/c1ccc(O)cc1)c1ccc(O)cc1O [Compound 6, 2′,4′,4-Trihydroxychalcone]	No	98.8%	96%	99.5%	99.1%	100%	101%	98.8%	107%	100,0%	100,0%	101,8%	103,5%	97.3%	107%	99.9%	107%	100%	103%	99.7%	activity at 400 µM [2, 8]: 95%; activity at 400 µM [2, 9]: 89.8%; activity at 400 µM [2, 14]: 97.7%; activity at 400 µM [2, 15]: 96.4%; Lag Phase ([2]; complex medium, 400 µM): 107,4%; Lag Phase ([2]; minimal medium, 400 µM): 101,8%; activity at 400 µM [3, 20]: 91.1%; activity at 400 µM [3, 21]: 109%; activity at 40 µM [3, 25]: 99%; activity at 400 µM [3, 26]: 101%; activity at 400 µM [3, 27]: 88.2%; Lag Phase ([3]; complex medium, 4 µM): 100,0%; Lag Phase ([3]; complex medium, 40 µM): 102,6%; Lag Phase ([3]; complex medium, 400 µM): 128,1%; Lag Phase ([3]; minimal medium, 4 µM): 98,9%; Lag Phase ([3]; minimal medium, 40 µM): 102,2%; Lag Phase ([3]; minimal medium, 400 µM): 116,3%
O=C(/C=C/c1ccccc1)c1ccc(O)cc1O [Compound 4, 2′,4′-Dihydroxychalcone]	No	101%	79.6%	104%	97.2%	103%	79%	99.3%	77.8%	102,2%	101,8%	100,7%	99,3%	92.2%	128%	94.3%	97.4%	96.6%	91.5%	95.7%	activity at 400 µM [2, 8]: 100%; activity at 400 µM [2, 9]: 89.4%; activity at 400 µM [2, 14]: 102%; activity at 400 µM [2, 15]: 76.5%; Lag Phase ([2]; complex medium, 400 µM): 101,5%; Lag Phase ([2]; minimal medium, 400 µM): 101,1%; activity at 400 µM [3, 20]: 81.5%; activity at 400 µM [3, 21]: 92.7%; activity at 40 µM [3, 25]: 108%; activity at 400 µM [3, 26]: 77.3%; activity at 400 µM [3, 27]: 75.2%; Influence on bacterial growth ([3]; Complex medium): fbs↓ lag↑; Influence on bacterial growth ([3]; Minimal medium): fbs↓, lag↑; Lag Phase ([3]; complex medium, 4 µM): 107,7%; Lag Phase ([3]; complex medium, 40 µM): 107,7%; Lag Phase ([3]; complex medium, 400 µM): 166,5%; Lag Phase ([3]; minimal medium, 4 µM): 97,7%; Lag Phase ([3]; minimal medium, 40 µM): 100,0%; Lag Phase ([3]; minimal medium, 400 µM): 129,1%
O=C(/C=C/c1ccc(O)c(O)c1)c1ccc(O)cc1O [Compound 8, 2′,4′,3,4-Tetrahydroxy-chalcone]	No	102%	95%	95.7%	89.4%	94.1%	86.4%	96.6%	85.3%	96,7%	100,0%	98,1%	98,1%	100%	111%	98.9%	109%	92.1%	105%	94.2%	activity at 0.4 µM ([2]; MG1655, complex medium, 0.4 µM, read-out: Final Backscatter): 98.9%; activity at 0.4 µM ([2]; MG1655, complex medium, 0.4 µM, read-out: Growth rate): 102%; activity at 0.4 µM ([2]; MG1655, minimal medium, 0.4 µM, read-out: Final Backscatter): 92.9%; activity at 0.4 µM ([2]; MG1655, minimal medium, 0.4 µM, read-out: Growth rate): 83.9%; Lag Phase ([2]; complex medium, 0.4 µM): 103,3%; Lag Phase ([2]; minimal medium, 0.4 µM): 96,2%; activity at 0.4 µM ([3]; Bacillus subtilis, 168, complex medium, 0.4 µM, read-out: Final Backscatter): 98.1%; activity at 0.4 µM ([3]; Bacillus subtilis, 168, complex medium, 0.4 µM, read-out: Growth rate): 98.2%; activity at 0.4 µM ([3]; Bacillus subtilis, 168, minimal medium, 0.4 µM, read-out: Final Backscatter): 85.1%; activity at 0.4 µM ([3]; Bacillus subtilis, 168, minimal medium, 0.4 µM, read-out: Growth rate): 106%; activity at 40 µM [3, 25]: 95.7%; Lag Phase ([3]; complex medium, 0.4 µM): 98,3%; Lag Phase ([3]; complex medium, 4 µM): 86,5%; Lag Phase ([3]; complex medium, 40 µM): 105,1%; Lag Phase ([3]; minimal medium, 0.4 µM): 107,5%; Lag Phase ([3]; minimal medium, 4 µM): 110,3%; Lag Phase ([3]; minimal medium, 40 µM): 90,4%
